Measurements from patent publication US20210207064A1, “COMPOUND FOR RESTORING CONTAMINATED SOIL OR CONTAMINATED WATER” (FNG RESEARCH CO., LTD., priority 2018, published 2021).

Experiments:
[1] = Heavy metal removal ability test in contaminated soil (ICP-MS), arsenic; conditions: for Arsenic (As) Adsorption amount: contaminated soil; for Arsenic (As) Adsorption rate: relative to EDTA control
Method in brief: (§1)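 Sieved soil spiked with aqueous heavy metal, mixed 5 min with 3 ml of test solution, then extracted with 50 ml distilled water (20 min stirring, 1 h settling). Supernatant metal measured by ICP-MS; adsorption rate (%) expressed relative to control.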

[2] = Heavy metal removal ability test in contaminated soil (ICP-MS), cadmium; conditions: for Cadmium (Cd) Adsorption amount: contaminated soil; for Cadmium (Cd) Adsorption rate: relative to EDTA control
Method in brief: as §1

[3] = Heavy metal removal ability test in contaminated soil (ICP-MS), nickel; conditions: for Nickel (Ni) Adsorption amount: contaminated soil; for Nickel (Ni) Adsorption rate: relative to EDTA control
Method in brief: as §1

[4] = system: human skin; test: Skin irritation test of active ingredient (patch method, CTFA guidelines); assay type: in vivo; conditions: 24 h patch; for Test result (number of subject) (+) / Test result (number of subject) (++) / Test result (number of subject) (±) / Test result (number of subject) (−): 20 people; for Test result (number of subject) (+): (+) apparent reddening; for Test result (number of subject) (++): (++) more reddened and swollen; for Test result (number of subject) (±): (±) slightly reddish; for Test result (number of subject) (−): (−) no erythema
[5] = Formaldehyde (formalin) removing ability test (GC); conditions: 2.0% formaldehyde solution, 3 molar equivalents of compound, room temperature; for Formaldehyde GC Area, 30 min: after 30 min; for Formaldehyde GC Area, 180 min: after 180 min; for Formaldehyde GC Area, Initial: initial state
[6] = Heavy metal removal ability test in contaminated soil around a factory (WAK-Me test kit); conditions: 1.0 wt % aqueous solution, colour comparison test kit
Procedure: The contaminated soil around the factory in the industrial complex was collected, pulverized, and meshed to prepare fine particles of soil samples.
Each 3 ml of aqueous solutions for restoring soil was added to soil samples and mixed for 5 minutes.

SMILES	Arsenic (As) Adsorption amount ([1]; content 0.5% aqueous solution)	Arsenic (As) Adsorption rate ([1]; content 0.5%)	Arsenic (As) Adsorption amount ([1]; content 1.0% aqueous solution)	Arsenic (As) Adsorption rate ([1]; content 1.0%)	Arsenic (As) Adsorption amount ([1]; content 2.0% aqueous solution)	Arsenic (As) Adsorption rate ([1]; content 2.0%)	Cadmium (Cd) Adsorption amount ([2]; content 0.5% aqueous solution)	Cadmium (Cd) Adsorption rate ([2]; content 0.5%)	Cadmium (Cd) Adsorption amount ([2]; content 1.0% aqueous solution)	Cadmium (Cd) Adsorption rate ([2]; content 1.0%)	Cadmium (Cd) Adsorption amount ([2]; content 2.0% aqueous solution)	Cadmium (Cd) Adsorption rate ([2]; content 2.0%)	Nickel (Ni) Adsorption amount ([3]; content 0.5% aqueous solution)	Nickel (Ni) Adsorption rate ([3]; content 0.5%)	Nickel (Ni) Adsorption amount ([3]; content 1.0% aqueous solution)	Nickel (Ni) Adsorption rate ([3]; content 1.0%)	Nickel (Ni) Adsorption amount ([3]; content 2.0% aqueous solution)	Nickel (Ni) Adsorption rate ([3]; content 2.0%)	Test result (number of subject) (+) ([4]; content 0.1 wt %)	Test result (number of subject) (++) ([4]; content 0.1 wt %)	also measured
O=C(O)CN1CCCN(CC(=O)O)CCN(CC(=O)O)CCCN(CC(=O)O)CC1 [Embodiment 9, 2,2′,2″,2′″-(1,4,8,11-tetraazacyclotetradecane-1,4,8,11-tetrayl)tetraacetic Acid]	42 ppm	168%	46 ppm	184%	48 ppm	192%	61 ppm	149%	66 ppm	161%	70 ppm	171%	76 ppm	155%	85 ppm	173%	96 ppm	196%	0	0	Test result (number of subject) (±) ([4]; content 0.1 wt %): 0; Test result (number of subject) (−) ([4]; content 0.1 wt %): 20; Degree of irritation ([4]; content 0.1 wt %): 0; Grade for skin irritation ([4]; content 0.1 wt %): I (Degree of irritation 0-0.1: Grade I (unstimulated)); Test result (number of subject) (+) ([4]; content 0.5 wt %): 0; Test result (number of subject) (++) ([4]; content 0.5 wt %): 0; Test result (number of subject) (±) ([4]; content 0.5 wt %): 0; Test result (number of subject) (−) ([4]; content 0.5 wt %): 20; Degree of irritation ([4]; content 0.5 wt %): 0; Grade for skin irritation ([4]; content 0.5 wt %): I (Degree of irritation 0-0.1: Grade I (unstimulated)); Test result (number of subject) (+) ([4]; content 1.0 wt %): 0; Test result (number of subject) (++) ([4]; content 1.0 wt %): 0; Test result (number of subject) (±) ([4]; content 1.0 wt %): 2; Test result (number of subject) (−) ([4]; content 1.0 wt %): 18; Degree of irritation ([4]; content 1.0 wt %): 0.10; Grade for skin irritation ([4]; content 1.0 wt %): I (Degree of irritation 0-0.1: Grade I (unstimulated)); Formaldehyde GC Area, 30 min [5]: 0.182 mAU*min; Formaldehyde GC Area, 180 min [5]: 0 mAU*min; Formaldehyde GC Area, Initial [5]: 0.305 mAU*min; Total amount (Cu, Zn, Mn, Ni, Cd) [6]: ≤5 ppm
O=C(O)c1ccc(N2CCCN(c3ccc(C(=O)O)cc3)CCN(c3ccc(C(=O)O)cc3)CCCN(c3ccc(C(=O)O)cc3)CC2)cc1 [Embodiment 10, 4,4′,4″,4′″-(1,4,8,11-tetraazacyclotetradecane-1,4,8,11-tetrayl)tetrabenzoic Acid]	39 ppm	156%	42 ppm	168%	46 ppm	184%	58 ppm	141%	65 ppm	159%	71 ppm	173%	79 ppm	161%	92 ppm	188%	94 ppm	192%	0	0	Test result (number of subject) (±) ([4]; content 0.1 wt %): 0; Test result (number of subject) (−) ([4]; content 0.1 wt %): 20; Degree of irritation ([4]; content 0.1 wt %): 0; Grade for skin irritation ([4]; content 0.1 wt %): I (Degree of irritation 0-0.1: Grade I (unstimulated)); Test result (number of subject) (+) ([4]; content 0.5 wt %): 0; Test result (number of subject) (++) ([4]; content 0.5 wt %): 0; Test result (number of subject) (±) ([4]; content 0.5 wt %): 0; Test result (number of subject) (−) ([4]; content 0.5 wt %): 20; Degree of irritation ([4]; content 0.5 wt %): 0; Grade for skin irritation ([4]; content 0.5 wt %): I (Degree of irritation 0-0.1: Grade I (unstimulated)); Test result (number of subject) (+) ([4]; content 1.0 wt %): 0; Test result (number of subject) (++) ([4]; content 1.0 wt %): 0; Test result (number of subject) (±) ([4]; content 1.0 wt %): 1; Test result (number of subject) (−) ([4]; content 1.0 wt %): 19; Degree of irritation ([4]; content 1.0 wt %): 0.05; Grade for skin irritation ([4]; content 1.0 wt %): I (Degree of irritation 0-0.1: Grade I (unstimulated)); Formaldehyde GC Area, 30 min [5]: 0.171 mAU*min; Formaldehyde GC Area, 180 min [5]: 0 mAU*min; Formaldehyde GC Area, Initial [5]: 0.305 mAU*min; Total amount (Cu, Zn, Mn, Ni, Cd) [6]: ≤5 ppm
O=C(O)c1cncc(N2CCCN(c3cncc(C(=O)O)c3)CCN(c3cncc(C(=O)O)c3)CCCN(c3cncc(C(=O)O)c3)CC2)c1 [Embodiment 11, 5,5′,5″,5′″-(1,4,8,11-tetraazacyclotetradecane-1,4,8,11-tetrayl)tetranicotinic Acid]	38 ppm	152%	41 ppm	164%	47 ppm	188%	59 ppm	144%	66 ppm	161%	70 ppm	171%	79 ppm	161%	88 ppm	180%	93 ppm	190%	0	0	Test result (number of subject) (±) ([4]; content 0.1 wt %): 0; Test result (number of subject) (−) ([4]; content 0.1 wt %): 20; Degree of irritation ([4]; content 0.1 wt %): 0; Grade for skin irritation ([4]; content 0.1 wt %): I (Degree of irritation 0-0.1: Grade I (unstimulated)); Test result (number of subject) (+) ([4]; content 0.5 wt %): 0; Test result (number of subject) (++) ([4]; content 0.5 wt %): 0; Test result (number of subject) (±) ([4]; content 0.5 wt %): 0; Test result (number of subject) (−) ([4]; content 0.5 wt %): 20; Degree of irritation ([4]; content 0.5 wt %): 0; Grade for skin irritation ([4]; content 0.5 wt %): I (Degree of irritation 0-0.1: Grade I (unstimulated)); Test result (number of subject) (+) ([4]; content 1.0 wt %): 0; Test result (number of subject) (++) ([4]; content 1.0 wt %): 0; Test result (number of subject) (±) ([4]; content 1.0 wt %): 2; Test result (number of subject) (−) ([4]; content 1.0 wt %): 18; Degree of irritation ([4]; content 1.0 wt %): 0.10; Grade for skin irritation ([4]; content 1.0 wt %): I (Degree of irritation 0-0.1: Grade I (unstimulated)); Formaldehyde GC Area, 30 min [5]: 0.174 mAU*min; Formaldehyde GC Area, 180 min [5]: 0 mAU*min; Formaldehyde GC Area, Initial [5]: 0.305 mAU*min; Total amount (Cu, Zn, Mn, Ni, Cd) [6]: ≤5 ppm
